The results in this text go back to patent EP0343223B1, “USE OF MELATONIN OR DERIVATIVES THEREOF FOR THE PRODUCTION OF PHARMACEUTICAL COMPOSITIONS EFFECTIVE TO COUNTERACT THE EFFECTS OF AGING” (priority 1987, dated 1989).

The structures appear in SMILES notation.

What all share (assay type): in vivo
Assay [1] has as its system C57BL/6J inbred male mice. Nature of the assay: Nocturnal oral melatonin in the drinking water of aging mice: life span and body weight. As to the method: Experiments were initiated in 1985 in which groups of C57BL/6J inbred male mice, aged 575 days (10 mice per group), were given melatonin (10 µg/ml) in the drinking water while the controls received tap water containing the same amount of absolute ethanol used to prepare melatonin stock solution (1 ml ethanol in 10 liters of tap water). The drinking water with or without melatonin was given at 6 p.m. and removed at 8.30 a.m. The drinking water was changed twice weekly. Starting at 5 months after initiation of the nocturnal, oral melatonin treatment, when the mice reached two years of age, a striking difference of body weight and of general body and pelage conditions started to be evident. Although some of the mice died earlier in both groups, the majority of the surviving mice treated with melatonin maintained their optimal body weight until 28 to 33 months of age (35.8± 4 grams) while the untreated mice lost progressively weight and were all dead within 29 months of age. Average body weight of the control mice at 27 months of age was 27.8± 4 grams.
The last melatonin-treated mouse died at 3 years of age. These date though preliminary make it evident that melatonin treatment of aging mice prolonged their life or circa 20 percent (average 6 months longer). The life span of melatonin-treated mice was 931 ± 80 days while that of control mice was 755 ± 81 days (p < 0.01).

The next assay has as its system lipids in blood. The experiment in a line: Lipids in blood of aging mice after chronic night melatonin treatment. The conditions noted are these: data not shown. The text has this: It follows that the increase of the production of thyroid hormones induced in vivo by exogenous melatonin should also be accompanied by an improved degradation of cholesterol, triglycerides and phospholipids and by detoxification effects at the liver level, all these beneficial effects resulting in a slowing down of the aging process.

A further assay deals with T3 and T4. The experiment in a line: T3 and T4 by radioimmunoassay in serum of aging mice after chronic night melatonin in drinking water. The text has this:
It can be seen (Table 1) that chronical treatment with melatonin in the drinking water in aging mice elevates the levels of T3 ([…]) and T4 (tyroxine) in their peripheral blood and corrects thus ageing-related thyroid dysfunction or lowered function.

Setting [2] is: C3H/He female, age 23 months, 3 months of melatonin treatment.
[3] abbreviates: C3H/He female, age 23 months, 3 months of melatonin treatment, serum.
Where [4] appears, read: C57BL/6 female, age 22 months, 5 months of melatonin treatment.

Turning to `COc1ccc2[nH]cc(CCNC(C)=O)c2c1` [melatonin], the “age at death of the last melatonin-treated mouse” value in assay [1] (C57BL/6J male mice) was 3 years. In addition, the life span in assay [1] (C57BL/6J male mice, melatonin 10 µg/ml in drinking water 6 p.m. to 8.30 a.m., from 575 days of age, p < 0.01 vs control) turned out to be 931 ± 80 days. In addition, the body weight in assay [1] (surviving melatonin-treated mice, maintained until 28 to 33 months of age, 10 µg/ml in drinking water at night, started at 575 days of age) amounted to 35.8± 4 grams. In addition, in assay [1] (versus control mice), the “average life prolongation (longer)” value is 6 months and the prolonged their life entry is on record as “circa 20%”. In addition, the “aging-related increase of lipids in blood” value in the assay with lipids in blood is given as “corrects the aging-related increase of lipids in blood”. In addition, in the assay with T3 and T4 (setting [2]), the “T3 change vs untreated” value is recorded as “+25%”, the T4/T3 was found to be 42.47, the “T4/T3 change vs untreated” value is listed as “+18%” and the “T4 change vs untreated” value was “+34%”. Moreover, in the assay on T3 and T4 (setting [3]), the T3 is given as 0.664± 0.137 and the T4 amounted to 28.2± 0.8. In the assay with T3 and T4 (setting [4]), the “T3 change vs untreated” value is “+11%”, the T4/T3 is 54.27, the “T4/T3 change vs untreated” value is recorded as “+10%” and the “T4 change vs untreated” value was “+20%”. This compound also displayed a T3 in the assay with T3 and T4 (C57BL/6 female, age 22 months, 5 months of melatonin treatment, serum) of 0.691± 0.077.
